Measurements taken from article PMC7594721, “Synthesis and biological activity of 2-cyanoacrylamide derivatives tethered to imidazopyridine as TAK1 inhibitors” (Journal of Enzyme Inhibition and Medicinal Chemistry, 2020).

How the values were obtained:
Experiment in all cases: Kinase HotSpot profiling (Reaction Biology Corp.)
Format in all cases: biochemical
Conditions in all cases: ATP at Km
[1] = molecular target: T1, MEKK6 (Homo sapiens, UniProt O95382)
T1 construct: purchased Reaction Biology Corp
T1 sequence (O95382 1-1288): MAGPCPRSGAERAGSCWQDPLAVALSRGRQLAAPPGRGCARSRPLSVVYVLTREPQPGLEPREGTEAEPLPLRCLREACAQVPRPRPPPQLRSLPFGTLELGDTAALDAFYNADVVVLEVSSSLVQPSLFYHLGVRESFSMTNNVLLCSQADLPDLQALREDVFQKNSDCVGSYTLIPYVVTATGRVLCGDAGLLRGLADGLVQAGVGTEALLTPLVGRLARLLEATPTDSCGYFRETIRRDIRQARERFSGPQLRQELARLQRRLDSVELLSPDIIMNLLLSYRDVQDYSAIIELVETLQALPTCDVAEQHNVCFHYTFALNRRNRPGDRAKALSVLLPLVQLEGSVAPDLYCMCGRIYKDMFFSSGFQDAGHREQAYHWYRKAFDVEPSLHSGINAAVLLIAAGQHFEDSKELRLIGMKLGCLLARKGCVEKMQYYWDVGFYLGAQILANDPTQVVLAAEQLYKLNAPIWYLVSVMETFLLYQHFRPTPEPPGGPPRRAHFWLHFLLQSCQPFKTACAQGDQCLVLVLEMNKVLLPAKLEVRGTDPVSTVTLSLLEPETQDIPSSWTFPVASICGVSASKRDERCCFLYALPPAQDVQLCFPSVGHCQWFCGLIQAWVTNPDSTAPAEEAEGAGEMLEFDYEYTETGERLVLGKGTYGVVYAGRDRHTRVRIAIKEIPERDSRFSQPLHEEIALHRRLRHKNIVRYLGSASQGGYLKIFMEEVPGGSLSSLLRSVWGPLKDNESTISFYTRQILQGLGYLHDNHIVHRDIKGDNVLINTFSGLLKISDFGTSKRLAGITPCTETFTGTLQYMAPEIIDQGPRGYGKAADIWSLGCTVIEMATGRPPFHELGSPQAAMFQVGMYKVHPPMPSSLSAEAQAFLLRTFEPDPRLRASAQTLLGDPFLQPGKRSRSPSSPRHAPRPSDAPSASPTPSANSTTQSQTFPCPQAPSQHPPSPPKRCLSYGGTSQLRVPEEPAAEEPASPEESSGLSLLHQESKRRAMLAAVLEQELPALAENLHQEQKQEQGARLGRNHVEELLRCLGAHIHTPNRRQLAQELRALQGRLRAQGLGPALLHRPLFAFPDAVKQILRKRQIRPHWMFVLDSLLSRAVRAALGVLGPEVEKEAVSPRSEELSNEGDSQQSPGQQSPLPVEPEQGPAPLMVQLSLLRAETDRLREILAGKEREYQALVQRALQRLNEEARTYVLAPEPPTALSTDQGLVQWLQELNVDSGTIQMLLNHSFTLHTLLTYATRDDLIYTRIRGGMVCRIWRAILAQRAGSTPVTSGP
Method: (§1) Kinase assays were performed by Invitrogen (now Thermo Fisher Scientific, Waltham, MA) or Reaction Biology Corp. (Malvern, PA). Inhibitory activity of compounds for TAK1 was evaluated using LanthaScreen® Eu Kinase Binding Assay (Invitrogen, Waltham, MA). The kinase profile of compound 13h was determined by the kinase HotSpot Profiling service of Reaction Biology Corporation. All assays were performed at Km for ATP.

[2] = molecular target: T2, MEK2/MAP2K2 (Homo sapiens, UniProt P36507)
T2 construct: purchased Reaction Biology Corp
Method: as §1

[3] = molecular target: T3, MEKK2 (Homo sapiens, UniProt Q9Y2U5)
T3 construct: purchased Reaction Biology Corp
T3 sequence (Q9Y2U5 1-619): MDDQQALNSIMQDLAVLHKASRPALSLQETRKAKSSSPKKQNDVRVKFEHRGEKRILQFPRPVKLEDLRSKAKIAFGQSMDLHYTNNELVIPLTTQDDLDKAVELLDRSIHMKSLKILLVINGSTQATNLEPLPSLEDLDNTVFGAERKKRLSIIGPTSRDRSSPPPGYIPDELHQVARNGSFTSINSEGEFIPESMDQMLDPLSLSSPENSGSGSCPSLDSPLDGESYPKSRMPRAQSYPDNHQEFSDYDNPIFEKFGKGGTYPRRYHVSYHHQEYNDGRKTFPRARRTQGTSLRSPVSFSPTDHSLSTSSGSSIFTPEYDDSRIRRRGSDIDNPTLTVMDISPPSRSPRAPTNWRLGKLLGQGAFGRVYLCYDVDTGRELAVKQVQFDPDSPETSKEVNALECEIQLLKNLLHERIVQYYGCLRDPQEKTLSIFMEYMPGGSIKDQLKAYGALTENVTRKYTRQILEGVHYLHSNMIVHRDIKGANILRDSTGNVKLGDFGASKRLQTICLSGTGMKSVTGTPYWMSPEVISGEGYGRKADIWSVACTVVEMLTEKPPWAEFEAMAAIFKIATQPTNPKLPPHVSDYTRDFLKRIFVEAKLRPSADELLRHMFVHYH
Method: as §1

T2 sequence (P36507 whole entry): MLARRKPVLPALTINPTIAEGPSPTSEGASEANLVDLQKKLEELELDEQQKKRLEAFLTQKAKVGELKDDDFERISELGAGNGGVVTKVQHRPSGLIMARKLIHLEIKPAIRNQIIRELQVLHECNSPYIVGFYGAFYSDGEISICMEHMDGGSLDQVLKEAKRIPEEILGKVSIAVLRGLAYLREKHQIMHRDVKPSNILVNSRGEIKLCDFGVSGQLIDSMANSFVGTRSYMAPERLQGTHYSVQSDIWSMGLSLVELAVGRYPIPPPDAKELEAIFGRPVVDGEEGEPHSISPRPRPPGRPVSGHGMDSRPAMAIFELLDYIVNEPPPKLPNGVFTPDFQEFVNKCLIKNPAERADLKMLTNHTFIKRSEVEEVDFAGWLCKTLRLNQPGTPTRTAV

Cc1cccc(/C=C(\C#N)C(=O)N[C@@H]2CCN(c3c(Cl)cnc4[nH]c(-c5ccc(N6CCN(C)CC6)cc5)nc34)C2)n1 [Compound 13h, (R,E)-N-(1–(6-chloro-2–(4-(4-methylpiperazin-1-yl)phenyl)-3H-imidazo[4,5-b]pyridin-7-yl)pyrrolidin-3-yl)-2-cyano-3-(6-methylpyridin-2-yl)acrylamide]
inhibition at 1 µM [1]: 0% | inhibition at 1 µM [2]: 23 ± 1.9% | inhibition at 1 µM [3]: 0%
